How the values were obtained:
Test in all cases: HMT Assay
[1] = target: N-lysine methyltransferase SMYD2 (Homo sapiens, UniProt Q9NRG4)
Protocol: (§1) All HMT reactions were performed as described previously [Nasveschuk et al., ACS Med. Chem. Lett., 5:378-383].

[2] = target: Histone-lysine N-methyltransferase SETDB1 (Homo sapiens, UniProt Q15047)
Protocol: as §1

[3] = target: Histone-lysine N-methyltransferase NSD2 (Homo sapiens, UniProt O96028)
Protocol: as §1

[4] = target: Histone-lysine N-methyltransferase EHMT2 (Homo sapiens, UniProt Q96KQ7)
Protocol: as §1

[5] = target: Histone-lysine N-methyltransferase SETD7 (Homo sapiens, UniProt Q8WTS6)
Protocol: as §1

[6] = target: Histone-lysine N-methyltransferase SMYD3 (Homo sapiens, UniProt Q9H7B4)
Protocol: as §1

[7] = target: Histone-arginine methyltransferase CARM1 (Homo sapiens, UniProt Q86X55)
Protocol: as §1

[8] = target: Histone-lysine N-methyltransferase, H3 lysine-79 specific (Homo sapiens, UniProt Q8TEK3)
Protocol: as §1

[9] = target: Histone-lysine N-methyltransferase SETD2 (Homo sapiens, UniProt Q9BYW2)
Protocol: as §1

Estrogen receptor = Estrogen receptor (Homo sapiens, UniProt P03372)
[10] = target: Tyrosine-protein kinase Lyn (Homo sapiens, UniProt P07948)
[11] = target: DNA (cytosine-5)-methyltransferase 1 (Homo sapiens, UniProt P26358)
[12] = target: Mitogen-activated protein kinase kinase kinase kinase 4 (Homo sapiens, UniProt O95819)
[13] = target: Protein arginine N-methyltransferase 3 [N508S] (Homo sapiens, UniProt O60678, N508S)
[14] = target: Acetylcholine receptor subunit alpha (Homo sapiens, UniProt P02708)
[15] = target: T1, Fibroblast growth factor receptor 2 [406-821] (Human, UniProt P21802)
T1 construct: 406-821

[16] = target: Gamma-aminobutyric acid receptor subunit alpha-1 (Homo sapiens, UniProt P14867)
[17] = target: Protein kinase C theta type (Homo sapiens, UniProt Q04759)
[18] = target: Sodium-dependent noradrenaline transporter (Homo sapiens, UniProt P23975)
[19] = target: T2, Tyrosine-protein kinase ABL1 [64-515] (Homo sapiens, UniProt P00519)
T2 construct: 64-515

[20] = target: Serine/threonine-protein kinase 17B (Homo sapiens, UniProt O94768)
[21] = target: Histone-lysine N-methyltransferase SUV39H2 (Human, UniProt Q9H5I1)
[22] = target: Protein kinase C alpha type (Homo sapiens, UniProt P17252)
[23] = target: Tyrosine-protein kinase BTK (Homo sapiens, UniProt Q06187)
[24] = target: T3, Fibroblast growth factor receptor 4 [388-802] (Human, UniProt P22455)
T3 construct: 388-802

[25] = target: Alpha-1A adrenergic receptor (Homo sapiens, UniProt P35348)
[26] = target: Muscarinic acetylcholine receptor M2 (Homo sapiens, UniProt P08172)
[27] = target: T4, Mitogen-activated protein kinase kinase kinase 8 [30-404] (Human, UniProt P41279)
T4 construct: 30-404

[28] = target: 5-hydroxytryptamine receptor 1A (Homo sapiens, UniProt P08908)
D(1A) dopamine receptor = D(1A) dopamine receptor (Homo sapiens, UniProt P21728)
[29] = target: Methylosome protein 50/Protein arginine N-methyltransferase 5 (Homo sapiens, UniProt O14744)
[30] = target: T5, Rho-associated protein kinase 2 [6-553] (Human, UniProt O75116)
T5 construct: 6-553

[31] = target: N-lysine methyltransferase SETD6 (Human, UniProt Q8TBK2)
[32] = target: Serine/threonine-protein kinase 4 (Human, UniProt Q13043)
[33] = target: T6, Receptor-type tyrosine-protein kinase FLT3 [563-993,D835Y] (Human, UniProt P36888, D835Y)
T6 construct: 563-993

[34] = target: T7, Interleukin-1 receptor-associated kinase 1 [184-712] (Human, UniProt P51617)
T7 construct: 184-712

[35] = target: Histone-lysine N-methyltransferase NSD3 (Homo sapiens, UniProt Q9BZ95)
[36] = target: T8, Protein arginine N-methyltransferase 1 [11-371] (Homo sapiens, UniProt Q99873)
T8 construct: 11-371

Chain of Histone-lysine N-methyltransferase EHMT2 (Q96KQ7 whole entry): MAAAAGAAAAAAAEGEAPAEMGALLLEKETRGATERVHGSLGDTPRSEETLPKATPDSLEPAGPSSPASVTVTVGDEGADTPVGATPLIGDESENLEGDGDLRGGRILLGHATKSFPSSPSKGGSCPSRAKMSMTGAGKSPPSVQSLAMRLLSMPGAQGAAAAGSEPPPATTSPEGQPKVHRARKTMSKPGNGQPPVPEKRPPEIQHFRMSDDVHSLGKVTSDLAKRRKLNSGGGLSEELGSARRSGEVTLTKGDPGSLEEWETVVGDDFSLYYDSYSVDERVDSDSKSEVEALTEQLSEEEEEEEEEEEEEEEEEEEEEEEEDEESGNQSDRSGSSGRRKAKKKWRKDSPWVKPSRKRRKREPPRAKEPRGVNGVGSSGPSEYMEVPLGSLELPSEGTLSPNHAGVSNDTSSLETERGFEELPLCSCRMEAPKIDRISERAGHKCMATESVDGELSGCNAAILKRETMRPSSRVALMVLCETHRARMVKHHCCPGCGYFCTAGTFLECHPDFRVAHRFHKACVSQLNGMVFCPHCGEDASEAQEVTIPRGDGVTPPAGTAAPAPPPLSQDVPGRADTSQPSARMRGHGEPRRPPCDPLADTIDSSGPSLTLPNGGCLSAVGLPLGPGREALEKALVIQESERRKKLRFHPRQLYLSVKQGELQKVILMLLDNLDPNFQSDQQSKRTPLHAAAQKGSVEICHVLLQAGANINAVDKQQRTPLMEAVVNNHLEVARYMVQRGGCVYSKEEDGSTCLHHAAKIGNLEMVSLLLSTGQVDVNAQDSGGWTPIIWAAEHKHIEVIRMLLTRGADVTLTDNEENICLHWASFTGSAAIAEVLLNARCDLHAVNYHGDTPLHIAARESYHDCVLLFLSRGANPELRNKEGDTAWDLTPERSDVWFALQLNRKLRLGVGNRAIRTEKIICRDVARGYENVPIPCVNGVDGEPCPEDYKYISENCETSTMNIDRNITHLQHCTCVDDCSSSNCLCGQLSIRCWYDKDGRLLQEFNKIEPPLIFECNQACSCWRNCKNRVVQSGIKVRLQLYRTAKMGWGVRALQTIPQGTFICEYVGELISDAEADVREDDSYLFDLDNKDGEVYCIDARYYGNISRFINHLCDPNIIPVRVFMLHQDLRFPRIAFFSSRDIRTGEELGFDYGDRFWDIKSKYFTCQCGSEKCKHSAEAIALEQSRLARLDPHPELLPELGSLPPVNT
Chain of Histone-lysine N-methyltransferase SUV39H2 (Q9H5I1 whole entry): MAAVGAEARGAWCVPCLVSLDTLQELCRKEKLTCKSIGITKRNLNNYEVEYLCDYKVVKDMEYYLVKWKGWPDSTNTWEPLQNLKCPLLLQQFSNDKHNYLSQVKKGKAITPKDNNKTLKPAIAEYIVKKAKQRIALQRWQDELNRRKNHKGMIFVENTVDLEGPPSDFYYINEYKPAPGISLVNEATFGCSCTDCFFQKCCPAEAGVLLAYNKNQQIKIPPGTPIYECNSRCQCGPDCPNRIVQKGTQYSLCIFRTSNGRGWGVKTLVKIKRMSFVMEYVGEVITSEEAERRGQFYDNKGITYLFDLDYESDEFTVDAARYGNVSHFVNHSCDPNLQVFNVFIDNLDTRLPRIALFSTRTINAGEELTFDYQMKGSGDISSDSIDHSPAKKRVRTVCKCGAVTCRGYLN
Chain of Mitogen-activated protein kinase kinase kinase kinase 4 (O95819 whole entry): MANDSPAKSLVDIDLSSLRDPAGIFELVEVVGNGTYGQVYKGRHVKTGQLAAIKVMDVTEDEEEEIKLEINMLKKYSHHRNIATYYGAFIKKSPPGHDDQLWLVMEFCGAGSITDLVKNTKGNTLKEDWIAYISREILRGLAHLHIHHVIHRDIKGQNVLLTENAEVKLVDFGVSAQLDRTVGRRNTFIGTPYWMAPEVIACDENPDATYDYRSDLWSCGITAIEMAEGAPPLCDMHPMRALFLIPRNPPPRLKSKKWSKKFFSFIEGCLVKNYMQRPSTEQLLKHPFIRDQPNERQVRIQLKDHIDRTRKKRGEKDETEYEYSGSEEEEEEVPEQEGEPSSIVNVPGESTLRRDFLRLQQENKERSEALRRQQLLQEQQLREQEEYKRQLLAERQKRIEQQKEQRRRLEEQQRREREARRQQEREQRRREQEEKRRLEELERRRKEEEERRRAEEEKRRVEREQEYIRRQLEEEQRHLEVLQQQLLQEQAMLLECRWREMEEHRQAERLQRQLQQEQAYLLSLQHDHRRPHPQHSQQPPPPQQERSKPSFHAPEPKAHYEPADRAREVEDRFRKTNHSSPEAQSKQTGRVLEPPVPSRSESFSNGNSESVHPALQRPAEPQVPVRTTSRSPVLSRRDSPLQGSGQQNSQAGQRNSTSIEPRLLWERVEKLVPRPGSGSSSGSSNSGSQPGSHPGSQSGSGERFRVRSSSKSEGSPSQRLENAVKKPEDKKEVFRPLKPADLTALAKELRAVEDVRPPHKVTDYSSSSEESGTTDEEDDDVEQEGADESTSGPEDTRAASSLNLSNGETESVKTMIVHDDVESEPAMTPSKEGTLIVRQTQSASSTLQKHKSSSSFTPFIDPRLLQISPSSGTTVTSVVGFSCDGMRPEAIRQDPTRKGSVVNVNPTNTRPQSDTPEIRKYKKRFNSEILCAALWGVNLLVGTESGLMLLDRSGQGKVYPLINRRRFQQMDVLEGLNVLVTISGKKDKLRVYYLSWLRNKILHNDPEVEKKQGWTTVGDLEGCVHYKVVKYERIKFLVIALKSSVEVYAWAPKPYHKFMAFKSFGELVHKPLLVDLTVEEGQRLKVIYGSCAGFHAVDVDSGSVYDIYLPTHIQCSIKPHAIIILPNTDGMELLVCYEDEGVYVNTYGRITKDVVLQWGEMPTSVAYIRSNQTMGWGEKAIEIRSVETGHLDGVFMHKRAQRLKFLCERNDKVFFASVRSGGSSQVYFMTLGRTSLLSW
Chain of D(1A) dopamine receptor (P21728 whole entry): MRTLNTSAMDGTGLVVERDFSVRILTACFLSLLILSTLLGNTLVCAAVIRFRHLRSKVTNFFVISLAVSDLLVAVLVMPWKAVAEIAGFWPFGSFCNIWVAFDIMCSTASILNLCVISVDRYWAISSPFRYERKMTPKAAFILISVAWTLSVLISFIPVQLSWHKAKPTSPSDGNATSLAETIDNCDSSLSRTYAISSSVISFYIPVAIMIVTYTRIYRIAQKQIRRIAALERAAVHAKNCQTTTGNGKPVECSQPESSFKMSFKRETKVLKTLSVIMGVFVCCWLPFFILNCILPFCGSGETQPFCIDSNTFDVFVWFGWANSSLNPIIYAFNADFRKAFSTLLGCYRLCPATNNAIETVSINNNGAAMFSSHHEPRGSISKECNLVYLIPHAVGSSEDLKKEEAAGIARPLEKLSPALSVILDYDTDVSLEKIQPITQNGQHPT
Chain of Serine/threonine-protein kinase 17B (O94768 whole entry): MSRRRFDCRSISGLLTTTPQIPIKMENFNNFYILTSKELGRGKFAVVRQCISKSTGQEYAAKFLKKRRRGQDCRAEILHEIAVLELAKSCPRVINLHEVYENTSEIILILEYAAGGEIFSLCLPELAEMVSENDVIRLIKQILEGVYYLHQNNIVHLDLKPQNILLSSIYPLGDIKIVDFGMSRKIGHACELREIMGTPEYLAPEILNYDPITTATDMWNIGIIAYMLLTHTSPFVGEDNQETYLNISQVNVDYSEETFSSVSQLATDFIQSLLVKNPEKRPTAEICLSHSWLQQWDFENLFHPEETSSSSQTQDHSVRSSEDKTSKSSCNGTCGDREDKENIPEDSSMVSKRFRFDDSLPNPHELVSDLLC
Chain of N-lysine methyltransferase SMYD2 (Q9NRG4 whole entry): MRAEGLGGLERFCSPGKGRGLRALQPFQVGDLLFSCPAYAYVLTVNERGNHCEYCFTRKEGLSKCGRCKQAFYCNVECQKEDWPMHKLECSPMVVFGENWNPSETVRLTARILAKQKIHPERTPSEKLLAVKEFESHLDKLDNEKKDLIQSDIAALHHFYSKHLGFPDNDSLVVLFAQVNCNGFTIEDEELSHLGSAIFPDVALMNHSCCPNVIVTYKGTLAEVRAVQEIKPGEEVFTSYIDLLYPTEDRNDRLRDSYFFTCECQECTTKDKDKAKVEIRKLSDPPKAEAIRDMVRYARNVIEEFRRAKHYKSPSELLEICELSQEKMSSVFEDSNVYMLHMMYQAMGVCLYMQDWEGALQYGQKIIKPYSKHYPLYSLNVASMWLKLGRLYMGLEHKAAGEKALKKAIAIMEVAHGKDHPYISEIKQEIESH

- IC50 [1]: > 100 µM
- IC50 [2]: > 100 µM
- IC50 [3]: > 100 µM
- IC50 [4]: > 100 µM
- IC50 [5]: > 100 µM
- IC50 [6]: > 100 µM
- IC50 [7]: > 100 µM
- IC50 [8]: > 100 µM
- IC50 [9]: > 100 µM
- IC50 (Estrogen receptor): > 30 µM
- IC50 [10]: > 10 µM
- IC50 [11]: > 100 µM
- IC50 [12]: > 10 µM
- IC50 [13]: > 100 µM
- IC50 [14]: > 30 µM
- IC50 [15]: > 10 µM
- IC50 [16]: > 30 µM
- IC50 [17]: > 10 µM
- IC50 [18]: > 30 µM
- IC50 [19]: > 10 µM
- IC50 [20]: > 10 µM
- IC50 [21]: > 100 µM
- IC50 [22]: > 10 µM
- IC50 [23]: > 10 µM
- IC50 [24]: > 10 µM
- IC50 [25]: > 30 µM
- IC50 [26]: > 30 µM
- IC50 [27]: > 10 µM
- IC50 [28]: > 30 µM
- IC50 (D(1A) dopamine receptor): > 30 µM
- IC50 [29]: > 100 µM
- IC50 [30]: > 10 µM
- IC50 [31]: > 100 µM
- IC50 [32]: > 10 µM
- IC50 [33]: > 10 µM
- IC50 [34]: > 10 µM
- IC50 [35]: > 100 µM
- IC50 [36]: > 100 µM
Structure (SMILES): CS(=O)(=O)c1ccc(-c2cnc(NCc3ccco3)n3cnnc23)cc1 [EED226]

From BindingDB's records for doi:10.1038/nchembio.2304 (Novartis Institutes for BioMedical Research, 2017)
